A short description of series [1]: 2carbaLPA detection in rat plasma after oral 2ccPA capsule. The format is in vivo. To be noted: oral gastro-resistant (entero-soluble) capsule of 2ccPA, 0-10 h. The text has this: Supplementary Figure S5. 2-carba-lysophosphatidic acid (2carbaLPA) produced in rat plasma from rats administered 2-carba-cyclic phosphatidic acid (2ccPA) as a gastro-resistant capsule. Rats were orally administered with 2ccPA containing capsule and 2carbaLPA produced in plasma was detected using liquid chromatography with tandem mass spectrometry (LC-QqQ) and presented as peak area (counts). Data are represented as mean ± standard deviation (n = 5 rat samples).
Preparation of 2ccPA intended to be administered as a gastro-resistant capsule, administration of the prepared 2ccPA in rats, and extraction of lipids from plasma samples were performed as per previously described methods^1. The experimental protocols were approved by the Animal Research Committee of the Saitama Medical University (approval number; 2113). Briefly, each capsule was filled with 19.70 ± 1.39 mg of 2ccPA and enteric-coated. Male 7-week-old Sprague Dawley rats were orally administrated with a single capsule and blood was collected from the jugular vein using a catheter from 0 to 10 h. Plasma was obtained by mixing with EDTA-Na2 (1 mg/mL), and the lipid fraction was extracted by adding acidic methanol, including LPA 17:0 (final concentration: 100 nM; Avanti Polar Lipids) as internal standard. Analysis for detection of 2carbaLPA with LC-QqQ was performed as above.

For the next series, the system named is LPA3. Particulars: Ca2+ mobilization, RH7777 and CHO cells, less than 2 min incubation ref 17; cited from earlier work.
The nature of series [2]: Degradation under acidic conditions (artificial gastric juice). The class given is physicochemical. Particulars: artificial gastric juice pH 1.2, 2 h, 37 °C. The method, then:
2ccPA was dissolved in artificial gastric juice (2 g NaCl and 12 M HCl 7 mL/1000 mL water at pH 1.2) at a final concentration of 1 mg/mL and incubated for 2 h at 37 °C. Lipid fraction was extracted by 4 volumes of chloroform/methanol (2:1, v/v) and separated by TLC as per previously reported. Extraction from the silica powder of TLC was performed by addition of 8 mL of chloroform/methanol (1:9, v/v) and it was repeated three times. After filtration (0.2 μm Captiva Premium syringe PTFE filter, Agilent Technologies, Santa Clara, CA, USA), the sample was diluted 100-fold with 5 mM ammonium formate in methanol/water (95:5, v/v) and subjected to QqTOF. The 3ccPA degradation compound was also prepared using the same method. The purity of the degradation compound was confirmed to be more than 95% by TLC, QqTOF, and LC-QqQ. Quantification was performed by weighing the purified sample after dried more than 24 h in the desiccator equipped with a vacuum pump.

The values below come from PMC8405639, “2-Carba-lysophosphatidic acid is a novel β-lysophosphatidic acid analogue with high potential for lysophosphatidic acid receptor activation and autotaxin inhibition” (Scientific Reports, 2021).

Consider `CCCCCCCC/C=C\CCCCCCCC(=O)OCC(CO)CP(=O)(O)O` (stereo not drawn) [2carbaLPA 18:1, 2-carba-lysophosphatidic acid], for which the “2carbaLPA in plasma after administration of 2ccPA” value in series [1] was “detectable”.

Consider `CCCCCCCC/C=C\CCCCCCCC(=O)OC[C@@H](O)CCP(=O)(O)O` [3carba LPA 18:1, 3-carba-lysophosphatidic acid], for which the “Activity relative to LPA (times weaker), LPA3” value in the series with LPA3 is given as “more than 10 times”.

As for `CCCCCCCC/C=C\CCCCCCCC(=O)OC[C@@H]1CCP(=O)(O)O1` [3ccPA 18:1, 3-carba-cyclic phosphatidic acid], in series [2], the “Conversion under acidic condition” value is given as “converted to the corresponding 3-carba-lysophosphatidic acid”.
